# In ChEMBL document CHEMBL3507680, “University of Dundee, Gates Library screen for HepG2 cell viability”:
# Experiment: Human HepG2 cell viability assay in 384 well format
# Format: toxicity, cell-based
# Set-up: dose 125 nL, time 70.5 hour; cytotoxicity at 70.5 h: concentration not given beside the values
# Settings: HepG2 cells, read-out: Inhibition
row,SMILES,cytotoxicity at 70.5 h [%]
1,Cc1[nH]ncc1C(=O)NCC1CCC2(CC1)OCCO2,-5.66
2,COCCN(C)C[C@@H]1CN(C(=O)c2sc3ccccc3c2C)C[C@@H]1CO,-6.69
3,CCCC1(CO)CCCN(c2ncccc2F)C1 (configuration not stated),-7.06
4,CC(NCC1(N(C)C)CCOCC1)c1ccc(S(C)(=O)=O)cc1 (configuration not stated),-3.6
5,Cc1noc(C(C)N2CCN(Cc3nnc(C4CC4)o3)CC2)n1 (configuration not stated),-3.98
6,Cc1cc(C)n(CC2CN(CC3CCCC3)CCO2)n1 (configuration not stated),-3.55
7,Cc1occc1C(=O)Nc1cccc(C(=O)OCC2CCCN2)c1 (configuration not stated),23.7
8,c1ncn(CC2CN(CCCOc3ccc4c(c3)OCO4)CCO2)n1 (configuration not stated),-4.94
9,O=C(Cn1nc(-c2ccc(F)cc2)oc1=O)NCc1ccccc1F,-5.95
10,Cc1nnc(CSc2n[nH]c(-c3ccccn3)n2)o1,-7.45
11,CC(C)c1cc(C(=O)NCC2CCCN(C(C)C)C2)n(C)n1 (configuration not stated),-0.374
12,CNc1cc(C)nc(C2COCCN2Cc2csc(C)n2)n1 (configuration not stated),-9.53
13,CSCC[C@@H]1CN2CCC[C@H]2CN1Cc1coc2ccc(C)cc2c1=O,-1.62
14,Nc1cc(C(=O)N2CCOC(Cc3cccc(C(F)(F)F)c3)C2)ccn1 (configuration not stated),-7.49
15,Cc1cn2c(CN(C)C(=O)c3cnc(N)c(Cl)c3)c(C)nc2s1,11.9
16,Cc1noc(C)c1CN(C)C(=O)NC(C)c1cccs1 (configuration not stated),7.59
17,C[C@@H]1CN(Cc2ccc(C(F)(F)F)cc2F)CC[C@]1(C)O,26.4
18,Nc1ncncc1-c1noc([C@@H]2CCCN2CCCc2ccccc2)n1,-6.26
19,CNC(=O)c1ccc(NC(=O)NC(C)CCc2cccn2C)c(C)c1 (configuration not stated),-0.342

row,SMILES,cytotoxicity at 70.5 h [%]
1,O=C(CCn1cccn1)N1CCSCC1,-4.39
2,CO[C@H]1CN(C(=O)OC(C)(C)C)CC1NCc1cccn1C (some centres not stated),-8.94
3,Cc1ccc(C(=O)N2CCC3(CCC(=O)N(CC(C)O)C3)CC2)c(O)c1 (configuration not stated),-7.72
4,Cc1nnc(CN2CCCC(CCc3ccccc3C(F)(F)F)C2)o1 (configuration not stated),-7.48
5,Cc1cc(C)n(CCC(=O)N2CCC(c3nc(C(C)C)no3)CC2)n1,-5.07
6,COCC(=O)N1CCC2(CC1)CC(N1CCOCC1)c1ccc(C)cc12 (configuration not stated),0.692
7,CCn1ccc2ccnc(CC3CN(C(=O)c4ccc(F)cc4)C3)c21,-6.52
8,O=C(O)C1(Oc2cccc(F)c2)CCN(c2ccncc2)CC1,-0.0629
9,CCc1nc(C2CCCN2Cc2nnc(C3CCC3)o2)no1 (configuration not stated),-2.49
10,Cn1c(CN2CCOCC2)cc(=O)c(O)c1CN1CCCCC1,-4.64
11,COc1ccc(NC(=O)CSc2nc(C)cc(C)n2)cn1,-8.52
12,CCN(CCn1cccn1)Cc1nc(-c2cccc(C)c2)oc1C,-5.06
13,Cn1ccnc1CN1CCN(Cc2ccccc2)[C@@H]2CS(=O)(=O)C[C@@H]21,-9.92
14,O=C(C1CCC1)N1CCC2(CCN(Cc3cccc(F)c3)CC2)CC1,18.6
15,CCOC(=O)N1CCN(C(=O)c2sc(-c3ccncc3)nc2C)CC1,23.5
16,COc1ccccc1CN(Cc1nc2c(cnn2C)c(=O)[nH]1)C1CC1,28.9
17,C[C@@H]1CN(c2ccc(C#N)cn2)CC[C@@]1(O)C1CCOCC1,27.2
18,NC(=O)NC(=O)CN1CCN(c2nccs2)CC1,-11.6
19,CNS(=O)(=O)c1ccc(CNC(=O)NCC2CCCO2)cc1 (configuration not stated),-20.2

row,SMILES,cytotoxicity at 70.5 h [%]
1,Cc1cc(=O)[nH]c(NCCNC(=O)CN2CCCCCC2)n1,15.9
2,CN(C)C(=O)CN1CCCC1c1cccc(Cc2ccccc2F)n1 (configuration not stated),0.856
3,CCC(O)CNC(=O)c1cc(COc2ccc(OC)cc2Cl)[nH]n1 (configuration not stated),-1.08
4,Cc1cc(C(=O)NC(C)C(=O)Nc2cc(F)ccc2C)nc(C)n1 (configuration not stated),5.43
5,COCc1ccc(C(=O)N(CCC#N)Cc2ccccn2)cc1,-3.02
6,O=C(Cn1nc2c(cc1=O)CSCC2)NC(Cc1ccccc1)C(=O)O (configuration not stated),23
7,O=C(c1coc2ccccc12)N1CCCC(O)(CO)CC1 (configuration not stated),-7.66
8,CCc1ccc(C(=O)Nc2cccc(CN3CCCC3C(N)=O)c2)cc1 (configuration not stated),0.802
9,CCCn1cc(Cl)c(C(=O)N2C[C@@H](O)[C@H](Oc3ccccc3)C2)n1,1.62
10,O=C1CN(C(=O)CC2C(=O)NCCN2CC2CCCCC2)CCN1 (configuration not stated),28.9
11,Cc1cc(C(F)(F)F)nc(N2CCN(Cc3nccn3C)CC2)n1,4.75
12,Cc1ccc2cc(C3(O)CCN(C(=O)CSC(C)C)CC3)ccc2n1,-6
13,COC[C@@]12CCO[C@@H]1CCN(C(=O)COc1ccccc1OC)C2,-11.3
14,Cc1nc(C)c2c(n1)CCN(Cc1ccsc1)CC2,-0.781
15,COCCN(Cc1ccco1)Cc1nc(-c2ccsc2)no1,11.1
16,CCN(CC)S(=O)(=O)c1cc2c3c(c1)c(C)cc(=O)n3CC2,3.57
17,COc1ccc(CN2CCO[C@@H]3C[C@@H](C(=O)NC(C)C)C[C@H]32)cc1,-5.46
18,CSc1cc(CNC(=O)CCOc2ccccc2C)ccn1,-7.07
19,CS(=O)(=O)NC[C@]12COC[C@H]1CN(C(=O)c1ncccn1)C2,17.4
